Data set [1] can be described thus: Gelation screening in buffer by heat/cool method. Format: physicochemical. The conditions noted are these: buffer 100 mM PBS, 10% DMSO, pH = 7.2.
For data set [2] the following is noted: approximate; stated without experiment or reference; cited from earlier work.
A further data set relates to thrombin. Put plainly: LC-MS analysis of aliquots to determine conversion. The class given is biochemical. As to conditions: 1 mM PMSF.

Regarding PABA-F5Phe-NH2 [Compound 1], in data set [1], the “critical gel concentration (cgc)” value is on record as 54 mM.

On to `Nc1ccc(C(=O)O)cc1` [PABA, p-aminobenzoic acid], for which the pKa in data set [2] was about 5.

As for `O=S(=O)(F)Cc1ccccc1` [PMSF], the “effect of thrombin inhibitor on enzymatic cleavage of compound 4” value in the data set with thrombin was “decrease in the rate of enzymatic cleavage”.
